Reference: patent publication US8546391B2, “Thiadiazole and oxadiazole derivatives, preparation thereof and therapeutic use thereof” (Sanofi, priority 2009, dated 2013)

System: triglyceride biosynthesis
Assay: in vitro inhibitory activity on triglyceride biosynthesis, cell test ([14C] glycerol incorporation in Chang liver cells)
Format: cell-based
Details: compounds incubated 30 minutes, then [14C] glycerol incorporation for 6 hours, read-out: inhibitory activity on triglyceride biosynthesis, concentration that inhibits 50% of the activity
Method: These trials consisted in measuring the in vitro inhibitory activity of the compounds of the invention on a cell test.
Chang liver cells at 80% confluence are detached with trypsin-EDTA, 4 ml per 175 cm^2 flask. After centrifugation at 1300×g for 5 minutes, the cell pellet is washed once with PBS and then resuspended in whole medium. The number of cells and their viability are determined on Mallassez cells via the exclusion method with trypan blue.
150 000 cells are inoculated per well into a 24-well plate for a minimum of 3 hours in DMEM medium 4.5 g/l of glucose supplemented with 10% FCS and with antibiotics, and are maintained at 37° C. in an incubator with CO2 (5%).
After 3 hours, the cells have adhered, the medium is removed and replaced overnight with DMEM medium 4.5 g/l of glucose with 2% of BSA/oleate.
After culturing for 18 hours without serum, the test compounds are incubated for 30 minutes ([…], 30, 100, 300 and 1000 nM) with the cells, followed by addition of [^14C] glycerol (0.4 μCi/ml/well) for an incorporation time of 6 hours.
The supernatant is drawn off and the cells are recovered by treatment with trypsin-EDTA, 100 μl/well, for 5 minutes at 37° C. This cell suspension is then recovered in an Eppendorf tube and is washed with twice 500 μl of PBS. The centrifugation at 1300×g for 5 minutes allows recovery of the cell pellets, which may be frozen at −20° C. In order to extract the lipids from the cell pellet, 400 μl of a methanol/dichloromethane/trifluoroacetic acid mixture (50/50/0.1%) is used to resuspend the cells. Next, the cell membranes are destroyed by sonication on a water bath, for 30 minutes. The samples are filtered through a 0.45 μm filtered and then injected onto a C18 HPLC column of 4.6×75 mm, 3 μm with a mobile phase of 5% (H2O+0.1% TFA), 70% methanol, 25% dichloromethane, with a flow rate of 1.5 ml/minute. The radioactivity is measured using a Flo One C625TR machine (Perkin-Elmer).
The inhibitory activity on triglyceride biosynthesis is given by the concentration that inhibits 50% of the activity.

| IC50 [nM] | Structure (SMILES) |
| --- | --- |
| 18 | O=C(O)C[C@H]1CC[C@H](c2ccc(C(=O)Nc3nnc(COC4CCCC4)s3)cc2)CC1 [Compound 37, trans-{4-[4-(5-cyclopentyloxymethyl[1.3.4]thiadiazol-2-ylcarbamoyl)-phenyl]cyclohexyl}acetic acid] |
| 51 | O=C(O)C[C@H]1CC[C@H](c2ccc(C(=O)Nc3nnc(COCC4CCCC4)s3)cc2)CC1 [Compound 40, trans-{4-[4-(5-cyclopentylmethoxymethyl[1,3,4]thiadiazol-2-ylcarbamoyl)phenyl]cyclohexyl}acetic acid] |
| 271 | O=C(Nc1nnc(Cc2ccccc2)s1)c1ccc(N[C@H]2CC[C@@H](C(=O)O)CC2)cc1 [Compound 68, cis-4-[4-(5-benzyl[1.3.4]thiadiazol-2-ylcarbamoyl)phenylamino]cyclohexanecarboxylic acid] |

| Structure (SMILES) | IC50 [nM] |
| --- | --- |
| O=C(Nc1nnc(Cc2cccc(Cl)c2)s1)c1ccc(O[C@H]2CC[C@@H](C(=O)O)CC2)nc1 [Compound 63, cis-4-{5-[5-(3-chlorobenzyl)[1.3.4]thiadiazol-2-ylcarbamoyl]pyridin-2-yloxy}cyclohexanecarboxylic acid] | 85 |

System: not given
Assay: not given
Details: not given

| Structure (SMILES) | melting point [°C] |
| --- | --- |
| O=C(O)C[C@H]1CC[C@H](c2ccc(C(=O)Nc3nnc(COCC4CCCC4)s3)cc2)CC1 [Compound 40, trans-{4-[4-(5-cyclopentylmethoxymethyl[1,3,4]thiadiazol-2-ylcarbamoyl)phenyl]cyclohexyl}acetic acid] | 241 |
| O=C(O)C[C@H]1CC[C@H](c2ccc(C(=O)Nc3nnc(C[S+]([O-])Cc4ccccc4)s3)cc2)CC1 (stereo partly drawn) [Compound 95, trans-{4-[4-(5-phenylmethanesulfinylmethyl[1.3.4]thiadiazol-2-ylcarbamoyl)phenyl]cyclohexyl}acetic acid] | 241 |
| O=C(CCc1nnc(NC(=O)c2ccc(O[C@H]3CC[C@@H](C(=O)O)CC3)cc2)s1)c1ccccc1 [Compound 102, cis-4-{4-[5-(3-oxo-3-phenylpropyl)[1,3,4]thiadiazol-2-ylcarbamoyl]phenoxy}cyclohexanecarboxylic acid] | 220 to 260 |

Other lines, results leading:

| melting point [°C] | Structure (SMILES) |
| --- | --- |
| 234 | O=C(O)C[C@H]1CC[C@H](c2ccc(C(=O)Nc3nnc(CSCc4ccccc4)s3)cc2)CC1 [Compound 96, trans-{4-[4-(5-benzylsulfanylmethyl[1,3,4]thiadiazol-2-ylcarbamoyl)phenyl]cyclohexyl}-acetic acid] |
| 247 | O=C(O)C[C@H]1CC[C@H](c2ccc(C(=O)Nc3nnc(C4CC(c5ccccc5)C4)s3)cc2)CC1 (stereo partly drawn) [Compound 97, trans-(4-{4-[5-(3-phenylcyclobutyl)[1,3,4]thiadiazol-2-ylcarbamoyl]phenyl}cyclohexyl)-acetic acid] |
